Source: patent publication US20100173834A1, “CYCLIC PEPTIDE MELANOCORTIN RECEPTOR LIGANDS” (priority 2007, published 2010)
Where a SMILES comes first, the peptide text is derived from it. Bridges are numbered along the chain shown (N, C = ends). [ ]: non-standard residue; d: D form.

Assays:
hMC5-R [1] = target: T1, hMC5-R (Homo sapiens, UniProt P33032); assay: Radioligand binding assay, hMC5-R
T1 construct: expressed in transfected cells; host or cells: CHO-K1
Procedure: (§1) The CHO-K1 cells expressing the desired hMC-R receptor type were sonicated (Branson, Danbury, Conn.) (etting 7, approximately 30 sec) in ice-cold 50 mM Tris-HCl at pH 7.4 and then centrifuged at 39,000 g for 10 minutes at approximately 4° C. The pellets were resuspended in the same buffer and centrifuged at 50,000 g for 10 minutes at approximately 4° C. The washed pellets containing the cellular membranes were stored at approximately −80° C.
(§2) Filters were washed three times with 50 mM Tris-HCl at pH 7.4 at a temperature of approximately 0-4° C. and then assayed for radioactivity using a Packard Topcount® scintillation counter (GMI, Inc., Ramsey, Minn.).

hMC1-R [2] = target: T2, hMC1-R (Homo sapiens, UniProt Q01726); assay: Radioligand binding assay, hMC1-R; set-up: expressed in transfected cells; host or cells: CHO-K1
Procedure: as §1, §2

hMC4-R [3] = target: T3, hMC4-R (Homo sapiens, UniProt P32245); assay: Radioligand binding assay, hMC4-R
T3 construct: expressed in transfected cells; host or cells: CHO-K1
Procedure: (§3) The pellets were resuspended in the same buffer and centrifuged at 50,000 g for 10 minutes at approximately 4° C. The washed pellets containing the cellular membranes were stored at approximately −80° C.
as §2

hMC1-R [4] = target: T2, hMC1-R; assay: Cyclic AMP bioassay, hMC1-R
Procedure: (§4) Intracellular cyclic AMP (cAMP) levels were determined by an electrochemiluminescence (ECL) assay (Meso Scale Discovery, Gaithersburg, Md.) (referred to hereinafter as “MSD”). […] Transgenic CHO-K1 cells stably expressing hMC receptor subtypes 1, 3, 4 or 5 were dispensed at a density of approximately 7,000 cells/well in 384-well Multi-Array plates (MSD) containing integrated carbon electrodes and coated with anti-cAMP antibody. Increasing concentrations of the test compounds were added and the cells were incubated for approximately 40 minutes at approximately 37° C. […] At the end of the second incubation period read buffer (Tris-buffered solution containing an ECL co-reactant and Triton X-100 at ph 7.8) was added and the cAMP levels in the cell lysates were immediately determined by ECL detection with a Sector Imager 6000 reader® (MSD). Data were analyzed using a computer-assisted non-linear regression analysis (XL fit; IDBS) and reported as either an EC50 value or a Kb value.
(§5) The Kb value reflects the potency of an antagonist and is determined by Schild analysis. In brief, concentration-response curves of an agonist are carried out in the presence of increasing concentrations of an antagonist. […] It is calculated by extrapolating the line on a Schild plot to zero on the y-axis.

hMC3-R [5] = target: T4, hMC3-R (Homo sapiens, UniProt P41968); assay: Radioligand binding assay, hMC3-R
T4 construct: expressed in transfected cells; host or cells: CHO-K1
Procedure: as §3, §2

hMC3-R [6] = target: T4, hMC3-R; assay: Cyclic AMP bioassay, hMC3-R; format: cell-based
Procedure: as §4, §5

hMC4-R [7] = target: T3, hMC4-R; assay: Cyclic AMP bioassay, hMC4-R; format: cell-based
Procedure: as §4, §5

hMC5-R [8] = target: T1, hMC5-R; assay: Cyclic AMP bioassay, hMC5-R; format: cell-based
Procedure: as §4, §5

[9] = target: human melanocortin 4 receptor (human) (UniProt P32245); assay: cell-based or functional assay
[10] = target: human melanocortin 5 receptor (human) (UniProt P33032); assay: cell-based or functional assay
[11] = target: human melanocortin 1 receptor (human) (UniProt Q01726); assay: cell-based or functional assay
[12] = target: human melanocortin 3 receptor (human) (UniProt P41968); assay: cell-based or functional assay
[13] = target: human melanocortin 3 receptor (human) (UniProt P41968); assay: competitive displacement of [125I]-NDP-alpha-MSH, membranes of CHO-K1 cells expressing hMC3-R

T2 sequence (Q01726 whole entry): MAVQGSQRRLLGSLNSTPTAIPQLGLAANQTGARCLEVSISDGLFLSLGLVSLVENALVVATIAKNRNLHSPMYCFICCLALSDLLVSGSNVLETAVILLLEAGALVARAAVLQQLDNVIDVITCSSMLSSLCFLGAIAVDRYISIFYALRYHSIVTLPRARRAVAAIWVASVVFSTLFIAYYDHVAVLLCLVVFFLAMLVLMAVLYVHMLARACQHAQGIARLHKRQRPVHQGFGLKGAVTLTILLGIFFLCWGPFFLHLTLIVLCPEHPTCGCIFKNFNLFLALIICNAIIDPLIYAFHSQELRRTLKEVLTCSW
human melanocortin 1 receptor (human), sequence (Q01726 whole entry): as above
T1 sequence (P33032 whole entry): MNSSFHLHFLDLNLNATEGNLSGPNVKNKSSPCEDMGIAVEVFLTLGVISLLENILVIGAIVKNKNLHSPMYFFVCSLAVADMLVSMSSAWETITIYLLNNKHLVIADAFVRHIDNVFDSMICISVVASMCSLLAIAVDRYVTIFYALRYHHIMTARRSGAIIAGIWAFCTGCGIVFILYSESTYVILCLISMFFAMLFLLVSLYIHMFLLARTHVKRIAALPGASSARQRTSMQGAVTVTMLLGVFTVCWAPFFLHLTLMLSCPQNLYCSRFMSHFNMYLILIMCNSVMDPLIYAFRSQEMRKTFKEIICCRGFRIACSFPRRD
human melanocortin 5 receptor (human), sequence (P33032 whole entry): as above
T4 sequence (P41968 whole entry): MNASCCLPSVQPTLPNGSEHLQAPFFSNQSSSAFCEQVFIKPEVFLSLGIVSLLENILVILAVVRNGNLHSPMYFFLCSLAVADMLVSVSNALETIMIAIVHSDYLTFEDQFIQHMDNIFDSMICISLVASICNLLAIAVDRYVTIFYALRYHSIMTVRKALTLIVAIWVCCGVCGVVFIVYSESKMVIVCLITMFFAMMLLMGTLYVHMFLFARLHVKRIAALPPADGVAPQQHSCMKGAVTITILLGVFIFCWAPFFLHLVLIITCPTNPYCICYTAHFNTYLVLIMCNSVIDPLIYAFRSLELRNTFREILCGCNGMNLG
human melanocortin 3 receptor (human), sequence (P41968 whole entry): as above
T3 sequence (P32245 whole entry): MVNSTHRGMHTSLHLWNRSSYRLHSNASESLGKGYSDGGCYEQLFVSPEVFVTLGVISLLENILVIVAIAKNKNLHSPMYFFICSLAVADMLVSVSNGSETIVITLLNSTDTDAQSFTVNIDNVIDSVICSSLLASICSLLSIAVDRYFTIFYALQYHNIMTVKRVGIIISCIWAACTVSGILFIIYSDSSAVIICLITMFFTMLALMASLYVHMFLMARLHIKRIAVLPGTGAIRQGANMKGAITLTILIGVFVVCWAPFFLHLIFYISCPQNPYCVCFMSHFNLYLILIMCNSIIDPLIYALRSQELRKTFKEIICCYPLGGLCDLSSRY
human melanocortin 4 receptor (human), sequence (P32245 whole entry): as above

Compound	Ki (hMC5-R [1])	Ki (hMC1-R [2])	Ki (hMC4-R [3])	EC50 (hMC1-R [4])	Ki (hMC3-R [5])	EC50 (hMC3-R [6])	EC50 (hMC4-R [7])	EC50 (hMC5-R [8])	EC50, cAMP bioassay (ECL) in CHO-K1 cells expressing hMC4-R [9]	EC50, cAMP bioassay (ECL) in CHO-K1 cells expressing hMC5-R [10]	EC50, cAMP bioassay (ECL) in CHO-K1 cells expressing hMC1-R [11]	EC50, cAMP bioassay (ECL) in CHO-K1 cells expressing hMC3-R [12]	Ki [13]
CC(=O)N[C@@H](Cc1cccc2ccccc12)C(=O)N[C@@H](CCCNC(=N)N)C(=O)N[C@H]1CSSC[C@@H](C(N)=O)NC(=O)[C@H](Cc2c[nH]c3ccccc23)NC(=O)[C@H](CCCNC(=N)N)NC(=O)[C@@H](Cc2ccccc2)NC(=O)[C@H](Cc2c[nH]cn2)NC(=O)[C@@H](C)NC1=O [Ac-1-Nal-Arg-c(Cys-D-Ala-His-D-Phe-Arg-Trp-Cys)-NH2]	888 nM	6.27 nM	1.53 nM	8.67 nM	36.4 nM	4.21 nM	0.363 nM	1320 nM	–	–	–	–	–
CC(=O)N[C@@H](Cc1ccc2ccccc2c1)C(=O)N[C@@H](CCCNC(=N)N)C(=O)N[C@H]1CSSC[C@@H](C(N)=O)NC(=O)[C@H](Cc2c[nH]c3ccccc23)NC(=O)[C@H](CCCNC(=N)N)NC(=O)[C@@H](Cc2ccccc2)NC(=O)[C@H](Cc2c[nH]cn2)NC(=O)[C@@H](C)NC1=O [Ac-2-Nal-Arg-c(Cys-D-Ala-His-D-Phe-Arg-Trp-Cys)-NH2]	864 nM	6.09 nM	2.02 nM	9.66 nM	34.9 nM	6.11 nM	0.275 nM	1730 nM	–	–	–	–	–
CC(=O)N[C@@H](Cc1c(F)c(F)c(F)c(F)c1F)C(=O)N[C@@H](CCCNC(=N)N)C(=O)N[C@H]1CSSC[C@@H](C(N)=O)NC(=O)[C@H](Cc2c[nH]c3ccccc23)NC(=O)[C@H](CCCNC(=N)N)NC(=O)[C@@H](Cc2ccccc2)NC(=O)[C@H](Cc2c[nH]cn2)NC(=O)[C@@H](C)NC1=O [Ac-Pff-Arg-c(Cys-D-Ala-His-D-Phe-Arg-Trp-Cys)-NH2]	786 nM	0.323 nM	1.95 nM	–	1.33 nM	–	–	–	–	–	–	–	–
CC(=O)N[C@@H](Cc1ccccc1)C(=O)N[C@@H](CCCNC(=N)N)C(=O)N[C@H]1CSSC[C@@H](C(N)=O)NC(=O)[C@H](Cc2c[nH]c3ccccc23)NC(=O)[C@H](CCCNC(=N)N)NC(=O)[C@@H](Cc2ccccc2)NC(=O)[C@H](Cc2c[nH]cn2)NC(=O)[C@@H](C)NC1=O [Ac-Phe-Arg-c(Cys-D-Ala-His-D-Phe-Arg-Trp-Cys)-NH2] (Ac-FRC[dA]H[dF]RWC-NH2; disulfide 3-9)	491 nM	1.48 nM	2.34 nM	–	14.8 nM	–	–	–	–	–	–	–	–
CC(=O)N[C@@H](Cc1c[nH]c2ccccc12)C(=O)N[C@@H](CCCNC(=N)N)C(=O)N[C@H]1CSSC[C@@H](C(N)=O)NC(=O)[C@H](Cc2c[nH]c3ccccc23)NC(=O)[C@H](CCCNC(=N)N)NC(=O)[C@@H](Cc2ccccc2)NC(=O)[C@H](Cc2c[nH]cn2)NC(=O)[C@@H](C)NC1=O [Ac-Trp-Arg-c(Cys-D-Ala-His-D-Phe-Arg-Trp-Cys)-NH2] (Ac-WRC[dA]H[dF]RWC-NH2; disulfide 3-9)	1470 nM	4.7 nM	2.25 nM	5.78 nM	42 nM	3.95 nM	0.219 nM	2580 nM	–	–	–	–	–
CC(=O)N[C@@H](Cc1ccc(O)cc1)C(=O)N[C@@H](CCCNC(=N)N)C(=O)N[C@H]1CSSC[C@@H](C(N)=O)NC(=O)[C@H](Cc2c[nH]c3ccccc23)NC(=O)[C@H](CCCNC(=N)N)NC(=O)[C@@H](Cc2ccccc2)NC(=O)[C@H](Cc2c[nH]cn2)NC(=O)[C@@H](C)NC1=O [Ac-Tyr-Arg-c(Cys-D-Ala-His-D-Phe-Arg-Trp-Cys)-NH2]	714 nM	–	–	–	–	–	–	1540 nM	–	–	–	–	–
Ac-1-Nal-Arg-c(Cys-D-Ala-His-D-Phe-Arg-Trp-Cys)-NH2 (peptide)	–	–	–	–	–	–	–	–	0.363 nM	1320 nM	8.67 nM	4.21 nM	–
Ac-2-Nal-Arg-c(Cys-D-Ala-His-D-Phe-Arg-Trp-Cys)-NH2 (peptide)	–	–	–	–	–	–	–	–	0.275 nM	1730 nM	9.66 nM	6.11 nM	–
Ac-Trp-Arg-c(Cys-D-Ala-His-D-Phe-Arg-Trp-Cys)-NH2 (peptide)	–	–	–	–	–	–	–	–	0.219 nM	2580 nM	5.78 nM	3.95 nM	–
Ac-Tyr-Arg-c(Cys-D-Ala-His-D-Phe-Arg-Trp-Cys)-NH2 (peptide)	–	–	–	–	–	–	–	–	–	1540 nM	–	2.39 nM	21.2 nM
